Reference: patent US11083735B2, “Methods for treating sleep disorders, sleep disturbances, and related symptoms using aminosterol compositions” (Enterin, Inc., priority 2017, dated 2021)

Tests used:
[1] = tested on: C. elegans model of PD; settings: cited from earlier work
[2] = tested on: patients with PD and constipation; assay: Phase 2 trial Stage 2: adverse events; settings: for Common adverse events by dose: Dizziness: lightheadedness included
Experimental: In Stage 2, 34 patients were evaluated. […] This dose was then maintained (“fixed dose”) for an additional 3-5 days. After the “fixed dose”, these patients were randomly assigned to either continued treatment at that dose or to a matching placebo, for an additional 4-6 days prior to a 2-week wash-out.
A second cohort of 19 patients received squalamine (ENT-01) escalating from 100 mg/day to a maximum of 250 mg/day without subsequent randomization to squalamine (ENT-01) or placebo. Criteria for dose selection and efficacy were identical to those used in the previous cohort.
Adverse events were coded using the current version of MedDRA. Severity of AEs were assessed by investigators according to CTCAE (v4.03): Grade 1 is labeled as Mild, Grade 2 as Moderate, and Grade 3 and above as Severe. […] The number (percentage) of subjects who experienced an AE during escalation and fixed dosing periods were summarized by dose level and overall for each stage. The denominator for calculating the percentages were based on the number of subjects ever exposed to each dose and overall.

[3] = Preclinical oral studies in rats (bioavailability, portal blood, tolerability)
[4] = tested on: isolated colons; assay: Isolated perfused colon, migrating muscular contractions (aged mouse; loperamide in young mouse)
Source text: Isolated colons were mounted in an apparatus that permits continuous perfusion through the lumen, and the monitoring of the velocity, frequency and pressure of migrating muscular contractions (MMCs). Similar to the experience in humans, aging in mice is associated with diminished colonic peristaltic activity.
In humans, opiates markedly diminish GI motility and suppress fluid secretion causing constipation. […] When loperamide is introduced into the lumen of a young mouse colonic peristalsis is inhibited. When squalamine is added in presence of continued loperamide perfusion, the dysmotility is overridden.

[5] = tested on: Intrinsic primary afferent neurons (IPAN) of the jejunum; assay: IPAN patch clamp, jejunum with intact luminal epithelium; set-up: species or system mouse; settings: lumen perfused with 30 μM squalamine; 5.5 before
Experimental: Squalamine evoked bursts of action potential lasting for 10 to 30 min after application of a brief (20 ms) 50 μL puff of squalamine onto the epithelium.
To determine the mechanism by which squalamine stimulated intestinal motility, electrophysiological studies were conducted on single neurons within the colon or jejunum of WT mice, using published methods. Intrinsic primary afferent neurons (IPAN) of the jejunum were patch clamped from the adventitial surface, while the lumen of the jejunum was perfused with either Krebs's buffer or buffer containing 30 μM squalamine. The IPANs are multipolar neurons that receive sensory information from the lumen and then communicate with other divisions within the ENS to influence peristalsis as well as direct information rostrally.
In this experiment IPAN excitability was measured by stimulating the neuron with a single standard pulse, and counting the number of subsequent spontaneous discharges.

CC(C)[C@@H](CC[C@@H](C)[C@H]1CC[C@H]2[C@@H]3[C@H](O)C[C@H]4C[C@@H](NCCCNCCCCN)CC[C@]4(C)[C@H]3CC[C@]12C)OS(=O)(=O)O (single isomer, unassigned; ent-01) [ENT-01]
formation of aggregates of αS ([1]; in vivo (Perni et al. 2017)): inhibit the formation of aggregates | AEs confined to the GI tract ([2]; Stage 2): 63% | Diarrhea, patients ([2]; Stage 2, 15/34): 44% | nausea, patients ([2]; Stage 2, 18/34): 52.9% | Abdominal pain, Mild ([2]; Stage 2, 34 dosed): 4(11.7) n, % | Abdominal pain, Moderate ([2]; Stage 2, 34 dosed): 2(5.8) n, % | Blood in urine, Mild ([2]; Stage 2, 34 dosed): 0 n, % | Blood in urine, Moderate ([2]; Stage 2, 34 dosed): 0 n, % | Diarrhea, Mild ([2]; Stage 2, 34 dosed): 12(35) n, % | Diarrhea, Moderate ([2]; Stage 2, 34 dosed): 2(5.8) n, % | Diarrhea, Severe ([2]; Stage 2, 34 dosed): 1(2.9) n, % | Difficulty falling asleep, Mild ([2]; Stage 2, 34 dosed): 1(3) n, % | Difficulty falling asleep, Moderate ([2]; Stage 2, 34 dosed): 0 n, % | Dizziness, Mild ([2]; Stage 2, 34 dosed): 7(20.5) n, % | Dizziness, Moderate ([2]; Stage 2, 34 dosed): 1(2.9) n, % | Flatulence, Mild ([2]; Stage 2, 34 dosed): 1(3) n, % | Flatulence, Moderate ([2]; Stage 2, 34 dosed): 0 n, % | Headache, Mild ([2]; Stage 2, 34 dosed): 3(8.8) n, % | Headache, Moderate ([2]; Stage 2, 34 dosed): 0 n, % | Increased urinary frequency, Mild ([2]; Stage 2, 34 dosed): 2(5.8) n, % | Increased urinary frequency, Moderate ([2]; Stage 2, 34 dosed): 0 n, % | Loss of appetite, Mild ([2]; Stage 2, 34 dosed): 0 n, % | Loss of appetite, Moderate ([2]; Stage 2, 34 dosed): 0 n, % | Nausea, Mild ([2]; Stage 2, 34 dosed): 18(52) n, % | Nausea, Moderate ([2]; Stage 2, 34 dosed): 1(2.9) n, % | Skin lesions-rash, Mild ([2]; Stage 2, 34 dosed): 3(8.8) n, % | Skin lesions-rash, Moderate ([2]; Stage 2, 34 dosed): 0 n, % | Urinary retention, Mild ([2]; Stage 2, 34 dosed): 1(3) n, % | Urinary retention, Moderate ([2]; Stage 2, 34 dosed): 0 n, % | Vomiting, Mild ([2]; Stage 2, 34 dosed): 2(5.8) n, % | Vomiting, Moderate ([2]; Stage 2, 34 dosed): 0 n, % | Worsening acid reflux, Mild ([2]; Stage 2, 34 dosed): 4(11.7) n, % | Worsening acid reflux, Moderate ([2]; Stage 2, 34 dosed): 0 n, % | Worsening hemorrhoid, Mild ([2]; Stage 2, 34 dosed): 1(3) n, % | Worsening hemorrhoid, Moderate ([2]; Stage 2, 34 dosed): 0 n, % | Common adverse events by dose: Diarrhea ([2]; Stage 2, dose 75 mg): 7 | Common adverse events by dose: Nausea ([2]; Stage 2, dose 75 mg): 3 | Common adverse events by dose: Dizziness ([2]; Stage 2, dose 75 mg): 8 | Common adverse events by dose: Diarrhea ([2]; Stage 2, dose 100 mg): 10 | Common adverse events by dose: Nausea ([2]; Stage 2, dose 100 mg): 12 | Common adverse events by dose: Dizziness ([2]; Stage 2, dose 100 mg): 7 | Common adverse events by dose: Diarrhea ([2]; Stage 2, dose 125 mg): 3 | Common adverse events by dose: Nausea ([2]; Stage 2, dose 125 mg): 4 | Common adverse events by dose: Dizziness ([2]; Stage 2, dose 125 mg): 8 | Common adverse events by dose: Diarrhea ([2]; Stage 2, dose 150 mg): 2 | Common adverse events by dose: Nausea ([2]; Stage 2, dose 150 mg): 11 | Common adverse events by dose: Dizziness ([2]; Stage 2, dose 150 mg): 2 | Common adverse events by dose: Diarrhea ([2]; Stage 2, dose 175 mg): 1 | Common adverse events by dose: Nausea ([2]; Stage 2, dose 175 mg): 12 | Common adverse events by dose: Dizziness ([2]; Stage 2, dose 175 mg): 0 | Common adverse events by dose: Diarrhea ([2]; Stage 2, dose 200 mg): 2 | Common adverse events by dose: Nausea ([2]; Stage 2, dose 200 mg): 6 | Common adverse events by dose: Diarrhea ([2]; Stage 2, dose 225 mg): 3 | Common adverse events by dose: Nausea ([2]; Stage 2, dose 225 mg): 1 | Common adverse events by dose: Diarrhea ([2]; Stage 2, dose 250 mg): 2 | Lower GI bleed, Severe ([2]; Stage 2, Unrelated to ENT-01 (diverticulosis, polyp, aspirin, Plavix, naproxen)): 1(2.5) n, % | absorption from the intestine ([3]; portal blood concentrations following oral dosing of radioactive ENT-01 to rats): low | tolerability ([3]; rats): well tolerated | oral bioavailability ([3]; rats, preclinical studies): about 0.1%

CC(C)[C@@H](CC[C@@H](C)[C@H]1CC[C@H]2[C@@H]3[C@H](O)C[C@H]4C[C@@H](NCCCNCCCCN)CC[C@]4(C)[C@H]3CC[C@]12C)OS(=O)(=O)O [squalamine]
colonic peristalsis ([4]; squalamine into the colonic lumen of the aged mouse): dramatic stimulation of peristalsis | dysmotility caused by loperamide ([4]; young mouse colon, squalamine added in presence of continued loperamide perfusion): overridden | number of discharges stimulated by a single electrical impulse (IPAN excitability) [5]: 8.8 | muscle paralysis ([1]; C. elegans model of PD (Perni et al. 2017)): complete reversal of muscle paralysis
